Test results as given in ChEMBL document CHEMBL4118289, “Developing hybrid molecule therapeutics for diverse enzyme inhibitory action: Active role of coumarin-based structural leads in drug discovery” (Bioorg Med Chem, 2018).

Assays:
[1] = molecular target: Aldo-keto reductase family 1 member B1 (Bos taurus) (UniProt P16116); experiment: Potency index, ratio of valproic acid IC50 to compound IC50 for bovine kidney ALR1
[2] = molecular target: Aldo-keto reductase family 1 member B1 (Bos taurus, UniProt P16116); experiment: Inhibition of calf lens ALR2 using D,L-glyceraldehyde as substrate preincubated for 5 mins followed by NADPH addition measured after 10 mins by UV spectrophotometric method
Tyrosinase = molecular target: T1, Tyrosinase (Agaricus bisporus, UniProt O42713); experiment: Inhibition of mushroom tyrosinase using L-DOPA as substrate preincubated for 10 mins followed by substrate addition measured after 20 mins
T1 sequence (O42713 whole entry): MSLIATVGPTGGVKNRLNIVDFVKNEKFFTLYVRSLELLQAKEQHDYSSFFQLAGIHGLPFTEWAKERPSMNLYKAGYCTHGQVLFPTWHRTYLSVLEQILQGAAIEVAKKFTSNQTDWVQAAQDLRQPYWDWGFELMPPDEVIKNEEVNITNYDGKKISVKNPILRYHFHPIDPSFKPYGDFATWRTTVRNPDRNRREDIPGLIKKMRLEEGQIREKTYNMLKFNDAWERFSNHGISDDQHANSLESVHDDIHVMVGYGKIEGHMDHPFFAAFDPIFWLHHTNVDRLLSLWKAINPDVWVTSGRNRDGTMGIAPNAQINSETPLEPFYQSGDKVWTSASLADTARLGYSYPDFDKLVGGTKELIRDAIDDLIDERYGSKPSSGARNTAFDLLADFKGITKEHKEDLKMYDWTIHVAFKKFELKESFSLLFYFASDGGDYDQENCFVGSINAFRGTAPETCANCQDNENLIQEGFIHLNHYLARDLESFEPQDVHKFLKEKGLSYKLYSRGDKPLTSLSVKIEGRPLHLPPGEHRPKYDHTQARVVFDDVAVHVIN

Rattus norvegicus [3] = experiment: Antiinflammatory activity in albino rat assessed as inhibition of carrageenan-induced paw edema at 10 umol/kg, sc pretreated for 1 hr followed by carrageenan challenge measured after 4 hrs by plethysmographic method relative to control; format: functional
[4] = molecular target: Prostaglandin G/H synthase 1 (Homo sapiens, UniProt P23219); experiment: Inhibition of human COX1 using [14C]arachidonic acid as substrate preincubated for 5 mins followed by substrate addition measured after 2 mins by TLC
Cholinesterase [5] = molecular target: Cholinesterase (Equus caballus, UniProt P81908); experiment: Inhibition of equine serum BChE using butyrylthiocholine iodide as substrate preincubated for 15 mins followed by substrate addition by Ellman's method
[6] = molecular target: Cholinesterase (Equus caballus) (UniProt P81908); experiment: Potency index, ratio of galanthamine IC50 to compound IC50 for equine serum BChE
Lipoxygenase = Lipoxygenase (Glycine max, UniProt Q39829)
Description: Inhibition of soybean lipoxygenase

[7] = molecular target: Intestinal-type alkaline phosphatase (Bos taurus, UniProt P19111)
Description: Inhibition of calf intestinal alkaline phosphatase using pNPP as substrate preincubated for 10 mins followed by substrate addition measured after 30 mins

Homo sapiens = species on record: Homo sapiens; experiment: Selectivity ratio of IC50 for human COX1 to IC50 for human COX2
Cholinesterase [8] = molecular target: Cholinesterase (Homo sapiens, UniProt P06276); experiment: Inhibition of human plasmatic BuChE using butylthiocholine as substrate preincubated for 5 mins followed by substrate addition measured at 1 min time interval by Ellman's method
Acetylcholinesterase [9] = molecular target: T2, Acetylcholinesterase (Homo sapiens, UniProt P22303); experiment: Potency index, ratio of 7-MEOTA IC50 to compound IC50 for human erythrocyte AChE
Acetylcholinesterase [10] = molecular target: T2, Acetylcholinesterase
Rattus norvegicus [11] = experiment: Antiinflammatory activity in Wistar rat assessed as inhibition of formalin-induced paw oedema at 20 mg/kg, po equiv of indomethacin pretreated for 1 hr followed by formalin addition measured up to 6 hrs post dose by plethysmographic method relative to control; format: functional
Saccharomyces cerevisiae = experiment: Potency index, ratio of acarbose IC50 to compound IC50 for Saccharomyces cerevisiae alpha-glucosidase
[12] = molecular target: Aldo-keto reductase family 1 member B1 (Bos taurus) (UniProt P16116); experiment: Potency index, ratio of sulindac IC50 to compound IC50 for calf lens ALR2
Bos taurus = species on record: Bos taurus; experiment: Selectivity index, ratio of IC50 for bovine kidney ALR1 to IC50 for calf lens ALR2
[13] = molecular target: Lipoxygenase (Glycine max) (UniProt Q39829); experiment: Potency index, ratio of NDGA IC50 to compound IC50 for soybean lipoxygenase
[14] = Non-competitive inhibition of baker's yeast alpha-glucosidase using pNPG as substrate preincubated for 10 mins followed by substrate addition measured after 30 mins by Lineweaver-Burk plot analysis; design: species or system Saccharomyces cerevisiae

Prostaglandin G/H synthase 1, sequence (P23219 whole entry): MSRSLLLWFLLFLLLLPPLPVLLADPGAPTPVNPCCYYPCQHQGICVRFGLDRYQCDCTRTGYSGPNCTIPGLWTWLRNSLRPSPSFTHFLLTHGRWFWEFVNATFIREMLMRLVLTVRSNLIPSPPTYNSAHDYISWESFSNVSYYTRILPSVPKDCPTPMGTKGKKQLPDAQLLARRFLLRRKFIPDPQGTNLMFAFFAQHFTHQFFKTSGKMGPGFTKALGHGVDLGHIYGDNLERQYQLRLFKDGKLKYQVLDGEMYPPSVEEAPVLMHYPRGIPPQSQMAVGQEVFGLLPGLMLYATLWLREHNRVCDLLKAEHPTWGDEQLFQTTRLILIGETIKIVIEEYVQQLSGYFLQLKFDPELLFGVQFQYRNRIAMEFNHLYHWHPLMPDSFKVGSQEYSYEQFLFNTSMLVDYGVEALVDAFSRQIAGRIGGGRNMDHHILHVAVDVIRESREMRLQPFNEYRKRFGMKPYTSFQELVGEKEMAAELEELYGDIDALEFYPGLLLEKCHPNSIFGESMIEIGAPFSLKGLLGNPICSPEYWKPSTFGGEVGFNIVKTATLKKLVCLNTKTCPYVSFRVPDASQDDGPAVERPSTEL
T2 sequence (P22303 whole entry): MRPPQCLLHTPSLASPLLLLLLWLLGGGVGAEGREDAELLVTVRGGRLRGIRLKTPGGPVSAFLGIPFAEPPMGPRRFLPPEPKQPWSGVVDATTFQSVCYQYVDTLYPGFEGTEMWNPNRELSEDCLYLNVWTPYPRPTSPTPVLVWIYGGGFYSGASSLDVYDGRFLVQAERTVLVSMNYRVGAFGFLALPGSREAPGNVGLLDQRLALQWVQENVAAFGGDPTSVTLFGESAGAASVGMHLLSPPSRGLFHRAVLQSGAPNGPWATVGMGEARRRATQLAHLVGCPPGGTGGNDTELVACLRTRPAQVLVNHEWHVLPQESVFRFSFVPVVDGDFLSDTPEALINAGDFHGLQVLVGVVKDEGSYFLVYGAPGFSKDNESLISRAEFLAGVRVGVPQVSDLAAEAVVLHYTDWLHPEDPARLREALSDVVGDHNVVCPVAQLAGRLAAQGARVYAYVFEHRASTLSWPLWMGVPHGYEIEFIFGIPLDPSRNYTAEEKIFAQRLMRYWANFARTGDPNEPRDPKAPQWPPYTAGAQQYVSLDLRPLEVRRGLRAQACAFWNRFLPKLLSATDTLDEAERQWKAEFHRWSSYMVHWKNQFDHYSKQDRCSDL
Intestinal-type alkaline phosphatase, sequence (P19111 whole entry): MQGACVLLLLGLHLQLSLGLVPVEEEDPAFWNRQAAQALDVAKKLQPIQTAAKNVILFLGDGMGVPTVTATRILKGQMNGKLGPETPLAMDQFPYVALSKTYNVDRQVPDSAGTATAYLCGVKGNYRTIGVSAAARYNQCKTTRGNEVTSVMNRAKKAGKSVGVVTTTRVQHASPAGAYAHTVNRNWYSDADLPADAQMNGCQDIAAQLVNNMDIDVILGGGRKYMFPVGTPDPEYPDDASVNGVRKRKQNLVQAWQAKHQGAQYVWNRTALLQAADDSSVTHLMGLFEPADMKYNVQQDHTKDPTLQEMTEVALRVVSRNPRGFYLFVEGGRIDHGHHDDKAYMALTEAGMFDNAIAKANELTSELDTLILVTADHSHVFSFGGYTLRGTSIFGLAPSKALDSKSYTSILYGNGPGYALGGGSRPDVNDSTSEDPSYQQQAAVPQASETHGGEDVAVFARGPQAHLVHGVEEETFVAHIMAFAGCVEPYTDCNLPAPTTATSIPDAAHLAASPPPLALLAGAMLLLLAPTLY
Cholinesterase (Equus caballus), sequence (P81908 whole entry): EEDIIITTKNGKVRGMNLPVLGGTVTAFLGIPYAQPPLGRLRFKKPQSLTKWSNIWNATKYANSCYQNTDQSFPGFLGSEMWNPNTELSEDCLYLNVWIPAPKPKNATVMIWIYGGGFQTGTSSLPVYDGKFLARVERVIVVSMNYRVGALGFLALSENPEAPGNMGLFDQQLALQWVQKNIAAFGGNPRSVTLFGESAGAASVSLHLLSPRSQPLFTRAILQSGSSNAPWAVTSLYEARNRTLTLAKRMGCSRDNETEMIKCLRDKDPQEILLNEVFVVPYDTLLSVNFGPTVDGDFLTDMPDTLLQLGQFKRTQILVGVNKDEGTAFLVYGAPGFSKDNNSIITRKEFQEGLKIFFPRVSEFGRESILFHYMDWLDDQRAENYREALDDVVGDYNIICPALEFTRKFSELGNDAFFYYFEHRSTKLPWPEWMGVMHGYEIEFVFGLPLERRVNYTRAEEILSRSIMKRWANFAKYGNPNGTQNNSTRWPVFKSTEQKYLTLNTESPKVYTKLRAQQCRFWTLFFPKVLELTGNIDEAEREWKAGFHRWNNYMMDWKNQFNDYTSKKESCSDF
Cholinesterase (Equus caballus, UniProt P81908), sequence (P81908 whole entry): as above
Cholinesterase (Homo sapiens, UniProt P06276), sequence (P06276 whole entry): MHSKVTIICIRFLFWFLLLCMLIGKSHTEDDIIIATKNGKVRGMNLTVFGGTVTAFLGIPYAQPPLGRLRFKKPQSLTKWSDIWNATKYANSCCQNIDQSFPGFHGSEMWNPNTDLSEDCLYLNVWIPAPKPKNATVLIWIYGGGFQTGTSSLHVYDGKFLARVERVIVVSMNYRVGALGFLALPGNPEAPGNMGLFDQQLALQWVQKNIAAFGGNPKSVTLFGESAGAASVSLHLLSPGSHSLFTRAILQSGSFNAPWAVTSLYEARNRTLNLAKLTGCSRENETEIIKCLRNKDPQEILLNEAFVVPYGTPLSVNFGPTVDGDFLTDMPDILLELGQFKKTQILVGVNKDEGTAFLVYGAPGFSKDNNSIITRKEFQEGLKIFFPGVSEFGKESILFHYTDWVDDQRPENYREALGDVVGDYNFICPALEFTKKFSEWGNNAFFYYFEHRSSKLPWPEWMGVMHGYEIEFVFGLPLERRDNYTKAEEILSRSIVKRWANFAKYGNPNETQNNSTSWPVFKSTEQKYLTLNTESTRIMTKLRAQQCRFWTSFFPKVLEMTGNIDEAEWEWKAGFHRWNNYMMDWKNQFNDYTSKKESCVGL

C/C(=N\Nc1nc(-c2cc3ccccc3oc2=O)cs1)c1ccc(Cl)cc1N
Ratio IC50 [1]: 125

O=c1oc2ccccc2cc1-c1nn(CN2CCOCC2)c(=S)o1
IC50 [2]: 0.34 µM

COc1cc(C2CC(c3cc4ccccc4oc3=O)=NN2c2nc(-c3ccc(Br)cc3)cs2)ccc1OCc1ccccc1 (configuration not stated)
IC50 (Tyrosinase): 0.00458 µM

CCOC(=O)C1=C(C)N(CC)/C(=N\N=C(/C)c2cc3ccccc3oc2=O)C1
inhibition in vivo at 10 µmol/kg (Rattus norvegicus [3]): 94.5% | IC50 [4]: 56 to 167 µM

CCCCNCn1nc(-c2cc3ccccc3oc2=O)oc1=S
Ratio IC50 [1]: 17

O=C(Nc1ccc(F)cc1)Nc1nc(-c2cc3cc([N+](=O)[O-])ccc3oc2=O)cs1
IC50 (Cholinesterase [5]): 4.93 µM | Ratio IC50 [6]: 4

O=c1oc2ccccc2c(O)c1/C=C/n1cnc2c(NCc3ccccc3)ncnc21
IC50 (Lipoxygenase): 20 µM

CC1=CC/C(=N/N=C(\C)c2cc3ccccc3oc2=O)N1C
inhibition in vivo at 10 µmol/kg (Rattus norvegicus [3]): 90% | IC50 [4]: 56 to 167 µM

C/C(=N\N=C1\CCC(=O)N1C)c1cc2ccccc2oc1=O
inhibition in vivo at 10 µmol/kg (Rattus norvegicus [3]): 71.9% | IC50 [4]: 56 to 167 µM

Cc1ccc(-n2c(-c3cc4ccccc4oc3=O)cs/c2=N/NC(=O)c2cc3ccccc3oc2=O)c(C)c1
IC50 [7]: 1.38 µM

C/C(=N\N=C1\CC(C)C(=O)N1C)c1cc2ccccc2oc1=O (configuration not stated)
inhibition in vivo at 10 µmol/kg (Rattus norvegicus [3]): 92.2% | IC50 [4]: 56 to 167 µM | Ratio IC50 (Homo sapiens): 223

O=C(Cc1cc(=O)oc2cc(O)ccc12)NCCCCCCCNC(=O)c1cccc2c(=O)c3ccccc3[nH]c12
IC50 (Cholinesterase [8]): 32.5 µM | Ratio IC50 (Acetylcholinesterase [9]): 3 | IC50 (Acetylcholinesterase [10]): 5.85 µM

O=c1oc2cc(Cl)ccc2cc1-c1nc2ccccc2[nH]1
inhibition in vivo at 20 mg/kg (Rattus norvegicus [11]): 47%

O=C(Cn1c(Cc2ccc(Cl)c(Cl)c2)nc2ccccc2c1=O)NNC(=O)c1cc2ccccc2oc1=O
Ratio IC50 (Saccharomyces cerevisiae): 4 to 5

O=c1oc2ccccc2cc1-c1nn(CNc2ccccc2Cl)c(=S)o1
IC50 [2]: 0.31 µM

C/C(=N\Nc1nc(-c2cc3ccccc3oc2=O)cs1)c1ccc(Br)cc1
IC50 [2]: 0.11 µM | Ratio IC50 [12]: 3 | Ratio IC50 (Bos taurus): 9.17

O=C(Cn1c(Cc2ccc(Br)cc2)nc2ccccc2c1=O)NNC(=O)c1cc2ccccc2oc1=O
Ratio IC50 (Saccharomyces cerevisiae): 4 to 5

CCN1C(C)=CC/C1=N/N=C(\C)c1cc2ccccc2oc1=O
inhibition in vivo at 10 µmol/kg (Rattus norvegicus [3]): 88.9% | IC50 [4]: 56 to 167 µM

O=c1oc2ccccc2c(O)c1/C=C/n1cnc2c(N3CCCCC3)ncnc21
Ratio IC50 [13]: 4 | IC50 (Lipoxygenase): 6.25 µM

O=C(N/N=C/c1cc(Cl)cc(Cl)c1O)c1nc(-c2cc3ccccc3oc2=O)cs1
Ki [14]: 6.86 µM
